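Each compound was tested at five concentrations against cells in 96-well plates for 48 hours. GI50 is the concentration that inhibits growth by half.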 The source made the active and inactive calls. Cut-off read from the data, not from the text of the source: active = GI50 up to about 1.1 µM and inactive = higher.
How the values were obtained:
Test in all cases: inhibition of tumour cell growth, NCI panel, 48 h
U-251 = test system: U-251
HT-29 = test system: HT-29
SN12C = test system: SN12C
UACC-257 = test system: UACC-257
EKVX = test system: EKVX
SF-539 = test system: SF-539
K562 = test system: K562
A498 = test system: A498
UACC-62 = test system: UACC-62
HCC 2998 = test system: HCC 2998
SK-OV-3 = test system: SK-OV-3
SK-MEL-2 = test system: SK-MEL-2
SF-268 = test system: SF-268
NCI-H23 = test system: NCI-H23
SK-MEL-28 = test system: SK-MEL-28
SF-295 = test system: SF-295
CCRF-CEM = test system: CCRF-CEM
RXF 393 = test system: RXF 393
MOLT-4 = test system: MOLT-4
DMS-273 = test system: DMS-273

Measured: GI50

N/C(=N\O)N/N=C\c1c(O)cc(O)cc1O
inactive: U-251 41.6 µM | HT-29 93.8 µM | SN12C 78.7 µM | UACC-257 99.3 µM | EKVX > 35.2 µM | SF-539 > 100 µM | K562 29.2 µM | A498 > 100 µM | UACC-62 15.8 µM | HCC 2998 73.8 µM | SK-OV-3 > 89.1 µM | SK-MEL-2 > 100 µM | SF-268 > 100 µM | NCI-H23 > 75 µM | SK-MEL-28 > 100 µM | SF-295 > 46.8 µM | CCRF-CEM 31.8 µM | RXF 393 > 100 µM | MOLT-4 39.8 µM | DMS-273 14.3 µM

Cc1[nH]c(=O)[nH]c(=O)c1/C=C/C(=O)NC(CO)C[S+]([O-])Cc1ccccc1 (stereo not given)
inactive: U-251 > 300 µM | HT-29 > 300 µM | SN12C > 300 µM | UACC-257 > 300 µM | EKVX > 300 µM | SF-539 > 300 µM | K562 > 300 µM | A498 > 300 µM | UACC-62 > 300 µM | HCC 2998 > 300 µM | SK-OV-3 > 300 µM | SK-MEL-2 > 277 µM | SF-268 > 300 µM | NCI-H23 > 300 µM | SK-MEL-28 > 300 µM | SF-295 > 300 µM | CCRF-CEM > 300 µM | RXF 393 > 300 µM | MOLT-4 > 300 µM | DMS-273 > 300 µM

C=CC12CN(C)C3C4COC(CC41)C1(C(=O)Nc4ccccc41)C32 (stereo not given)
inactive: U-251 > 156 µM | HT-29 > 145 µM | SN12C > 200 µM | UACC-257 > 200 µM | EKVX > 200 µM | SF-539 > 200 µM | K562 165 µM | A498 9.29 µM | UACC-62 > 178 µM | HCC 2998 > 151 µM | SK-OV-3 > 20 µM | SK-MEL-2 > 148 µM | SF-268 173 µM | NCI-H23 > 173 µM | SK-MEL-28 175 µM | SF-295 > 200 µM | CCRF-CEM 96.6 µM | RXF 393 > 179 µM | MOLT-4 > 200 µM | DMS-273 > 200 µM

C=CCn1c2ccccc2c2c(C)c3cnccc3c(C)c21
inactive: U-251 11.2 µM | HT-29 8.93 µM | SN12C 9.1 µM | UACC-257 7.23 µM | EKVX 12.1 µM | SF-539 10.7 µM | K562 5.6 µM | A498 6.34 µM | UACC-62 9.35 µM | HCC 2998 20.4 µM | SK-OV-3 5.9 µM | SK-MEL-2 15.8 µM | SF-268 7.98 µM | NCI-H23 6.95 µM | SK-MEL-28 14.8 µM | SF-295 9.86 µM | CCRF-CEM 4.12 µM | RXF 393 4.27 µM | MOLT-4 2.95 µM | DMS-273 6.92 µM
